How the values were obtained:
[1] = Acute oral toxicity test in rats; details: SD, rat, in vivo, single oral dose, suspended in 0.5% methyl cellulose, read-out: lethal dose (LD50) for oral administration
How it was run: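 Six-week-old SPF SD rats, two per group, received compounds orally as suspensions in 0.5% methyl cellulose. Endpoints were clinical signs, body weight, mortality, haematology, serum biochemistry and macroscopic necropsy of organs and tissues.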

[2] = tested on: isolated rat aorta; test: Vasodilating effect on blood vessel excised from rats (methoxamine-constricted aorta); details: isolated rat aorta constricted with methoxamine (3 μM); read-out: Concentration for inhibition of constriction induced by methoxamine in rat arota (IC50)
How it was run: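 Endothelium-denuded rat thoracic aortic rings (3 mm) in Krebs-Henseleit buffer, 37 °C, carbogen, 2 g resting tension, primed twice with 10^−5 M phenylephrine. After maximal contraction with 3×10^−6 M methoxamine, compounds added cumulatively at 1, 3, 10, 30 μM. IC50 = concentration giving 50% relaxation of maximal constriction, by linear regression.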

[3] = tested on: brain homogenate; test: Inhibitory effect against lipid peroxidation by iron (MDA quantification); type: biochemical, rat; details: 100 μM compound, FeCl2 400 μM, 37° C. 30 min
Experimental: The rat brain was homogenized in a Krebs buffer (15 mM HEPES, 10 mM glucose, 140 mM NaCl, 3.6 mM KCl, 1.5 mM CaCl2, 1.4 mM KH2PO4, 0.7 mM MgCl2, PH 7.4) and the supernatant separated by centrifugation at 12,000 rpm for 10 min was used for further experiments. FeCl2 was added for the final concentration to be 400 μM. Then the brain homogenate was allowed to stand at 37° C. for 30 min for the facilitation of oxidation. Each of the test compounds was added at a concentration of 100 μM. For control group, only vehicle was applied.
Iron facilitates the oxidation of the said brain homogenate to produce malondialdehyde (MDA), lipid peroxidation product. Thus, the lipid peroxidation was determined by MDA quantification. The inhibitory effect against lipid peroxidation of the test compounds was evaluated by calculating MDA reduction rate of the test compounds compared with that of the control group.
Typically, the MDA quantification is achieved by reacting samples with 2-thiobarbituric acid (TBA) and measuring the absorbance at 530 nm. However, this method is unsuitable to treat samples on a large scale because of a boiling step. Thus, in this experiment, N-methyl-2-phenylindole was used instead of TBA.

[4] = tested on: cortical neuron cells; test: Protective effect on iron-induced neuronal cell injury (LDH release); type: cell-based; details: FeSO4 50 μM; for protective effect on neuron cell: Inhibition (%, 30 μM compound addition): LDH reduction vs control; for IC50: LDH
How it was run: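 Embryonic (day 17–18) cortical neurons cultured 7–9 days, serum lowered to 0.2%, pretreated 30 min with compound (DMSO ≤0.1%), then exposed to 50 μM FeSO4 for 24 h. LDH released to medium measured; protection expressed as LDH reduction versus vehicle control.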

[5] = tested on: RAW 264.7 cells; test: Inhibitory effect on NO production (LPS, Griess reagent); type: cell-based, murine; details: Mus musculus, RAW264.7, 24 h, Addition 30 μM, LPS 1 μg/ml, read-out: Inihibition (%) of NO production
Experimental: Using RPMI1640 media supplemented with 10% fetal bovine serum (FBS), RAW 264.7 cells (obtained from American Type Culture Collection), a murine macrophage cell line, were cultured at 37° C. in a 5% CO2 incubator. The RAW 264.7 cells were harvested and cell density was adjusted to 5×10^5 cell/ml with a RPMI media supplemented with 0.5% FBS and plated at 5×10^4 cell/well to 96-well plate, which were then cultured for 20 hours in a CO2 incubator. After removal of the media, the cells were pre-treated for 1 hour with fresh media containing 30 μM. The test compounds were dissolved in DMSO and diluted to respective concentration in the media. In order to minimize DMSO effect on the nitric oxide formation by the RAW 264.7 cells in the walls, the media were allowed to contain DMSO at a concentration of 0.1% or less.
After completion of one-hour pre-treatment, Lipopolysaccharide (E. coli serotype 055:B5) was added to activate the cells at a final concentration of 1 μg/ml, which were maintained for 24 hours in a CO2 incubator. As a result of the activation of RAW 264.7 cells with LPS, NO was formed. The NO release into the media was in a form of nitrite (NO2^−) and quantitatively measured using the Griess reagent. A control group was treated only with vehicle instead of test compounds.
The inhibitory effect of the test compounds against NO production were determined as the reduction of NO quantity compared with that of the control group.

[6] = tested on: isolated ischemic rat heart; test: Cardioprotective effect in ischemic heart models of rats (Langendorff); details: 10 μM; for EDP (mmHg): after 30 min global ischemia and reperfusion; for LDH (u/g): reperfusion LDH release; for LVDP X HR (%): reperfusion, % of pre-treatment DP; for TTC: time to contracture during global ischemia
Experimental: Male rats (300˜450 g, obtained form the experimental animal team of the Korea Research Institute of Chemical Technology) were anaesthetized by the intra-peritoneal injection of sodium pentobarbital at a dose of 100 mg/kg. Heparin (1,000 U/kg) was injected to the tail vein and then the heart was enucleated. Particularly, cannula (PE 240) was inserted to the organ. Rats were mechanically ventilated with a rodent ventilator, in situ aorta cannula was inserted into their aorta. In retorograde perfusion, their hearts were enucleated, then just hung onto Langendorff Apparatus. Tissue attached at the heart was removed. Heart was perfused in oxygenated modified Krebs-Henseleit bicarbonate buffer (composition<mM/L>116 NaCl, 4.7 KCl, 1.1 MgSO4, 1.17 KH2PO4, 24.9 NaHCO3, 2.52 CaCl2, 8.32 Glucose, 2.0 Pyruvate) at a constant perfusion pressure (85 mmHg). A metal cannula attached to latex balloon filled with solvent (ethanol: water=1:1 (v/v)) was placed in the left ventricle through pulmonary vein and connected to a isovolumetric pressure transducer (H.S.E., Germany) for measurement of left ventricular pressure (LVP). The hearts were allowed to equilibrate for 15 min, at which time left ventricular end-diastolic pressure (EDP) was adjusted to 5 mmHg and this balloon volume was maintained throughout the experiment.
Baseline cardiac contractile function, heart rate (HR), and coronary flow (CF) were measured. Cardiac contractile function was calculated by […], yielding LVDP (left ventricular developed pressure). Double product RPP (rate-pressure product) (DP), another important parameter for indirectly assessing cardiac performance in Langendorff heart impossible to measure cardiac output was calculated by multiplying HR by LVDP.
Throughout the experiment, total coronary blood flow was measured by the use of coronary flow probe (diameter: 1.0 mm) installed in aortic cannula with electromagnetic flowmeter. Temperature of heart was steadily maintained by immersing the heart at 37° C. in physiological saline solution to which 95% O2/5% CO2 was constantly supplied. After stabilization for 15 min, the hearts were pre-treated for 10 min in vehicle (0.04% DMSO) or mixture containing the compound of the present invention or control material. Thereafter, cardiac contractile function, HR and CF were repeatedly measured. Global ischemia was induced by completely shutting off the perfusate for 30 min. Severity of ischemia was determined as the time to contracture (TTC, min) during global ischemia in which the first 5 mmHg increase in EDP was observed. Then, the hearts were reperfused and, 30 min later, contractile functions (LVDP, HR and CF) was repeatedly measured. After reperfusion was accomplished for 30 min, LDH (lactate dehydrogenase) was measured as a sensitive index for loss of cell viability with a kit.

Row | SMILES | LD50 [1] [mg/kg] | IC50 [2] [µM] | inhibitory effect against lipid peroxidation induced by iron (%, 100 μM) [3] [%] | protective effect on neuron cell: Inhibition (%, 30 μM compound addition) ([4]; 24 hours) [%] | IC50 ([4]; Cortical neurone, 24 h) [nM] | IC50 ([4]; 24 hours) [nM] | inhibition at 30 µM [5] [%] | EDP (mmHg) [6] [mmHg] | LDH (u/g) [6] [u/g] | LVDP X HR (%) [6] [%] | TTC [6] [min]
1 | COC(OC)[C@@]1(C)Oc2ccc(N)cc2[C@@H](N(Cc2nnnn2C)c2ccc(Cl)cc2)[C@@H]1O [Example 17, (2S,3S,4R)-6-amino-4-[N-(4-chlorophenyl)-N-(1-methyl-1H-tetrazol-5-ylmethyl)amino]-3-hydroxy-2-methyl-2-dimethoxymethyl-3,4-dihydro-2H-1-benzopyran] | > 2000 | > 30 | 87 | 110 | < 2000 | 2000 |  |  |  |  | 
2 | COC(OC)[C@@]1(C)Oc2ccc([N+](=O)[O-])cc2[C@H](N(Cc2nnn(C)n2)c2ccccc2Cl)[C@H]1O [Example 29, (2S,3R,4S)-6-nitro-4-[N-(2-chlorophenyl)-N-(2-methyl-2H-tetrazol-5-ylmethyl)amino]-3-hydroxy-2-methyl-2-dimethoxymethyl-3,4-dihydro-2H-1-benzopyran] |  |  |  |  |  |  | > 75 |  |  |  | 
3 | COC(OC)[C@@]1(C)Oc2ccc(N)cc2[C@H](N(Cc2nnn(C)n2)c2ccccc2Cl)[C@H]1O [Example 30, (2S,3R,4S)-6-amino-4-[N-(2-chlorophenyl)-N-(2-methyl-2H-tetrazol-5-ylmethyl)amino]-3-hydroxy-2-methyl-2-dimethoxymethyl-3,4-dihydro-2H-1-benzopyran] | > 2000 |  | 84 | 103 |  |  |  | 17.0 | 15.7 | 64.7 | 27.9
4 | COC(OC)[C@@]1(C)Oc2ccc(N)cc2[C@H](N(Cc2nnn(C)n2)c2ccc(OC(F)(F)F)cc2)[C@H]1O [Example 32, (2S,3R,4S)-6-amino-4-[N-(4-trifluoromethoxyphenyl)-N-(2-methyl-2H-tetrazol-5-ylmethyl)amino]-3-hydroxy-2-methyl-2-dimethoxymethyl-3,4-dihydro-2H-1-benzopyran] | > 2000 | > 30 | 89 | 108 | < 2000 | 1600 |  | 17.0 | 15.7 | 64.7 | 27.9
5 | COC(OC)[C@@]1(C)Oc2ccc([N+](=O)[O-])cc2[C@H](N(Cc2nnn(C)n2)c2ccc(C)cc2C)[C@H]1O [Example 45, (2S,3R,4S)-6-nitro-4-[N-(2,4-dimethylphenyl)-N-(2-methyl-2H-tetrazol-5-ylmethyl)amino]-3-hydroxy-2-methyl-2-dimethoxymethyl-3,4-dihydro-2H-1-benzopyran] |  |  |  |  |  |  | > 75 |  |  |  | 
6 | COC(OC)[C@@]1(C)Oc2ccc([N+](=O)[O-])cc2[C@H](N(Cc2nnn(C)n2)c2c(C)cccc2C)[C@H]1O [Example 47, (2S,3R,4S)-6-nitro-4-[N-(2,6-dimethylphenyl)-N-(2-methyl-2H-tetrazol-5-ylmethyl)amino]-3-hydroxy-2-methyl-2-dimethoxymethyl-3,4-dihydro-2H-1-benzopyran] |  |  |  |  |  |  | 62 |  |  |  | 
7 | COC(OC)[C@@]1(C)Oc2ccc([N+](=O)[O-])cc2[C@H](N(Cc2nnn(C)n2)c2ccccc2C(C)C)[C@H]1O [Example 51, (2S,3R,4S)-6-nitro-4-[N-(2-isopropylphenyl)-N-(2-methyl-2H-tetrazol-5-ylmethyl)amino]-3-hydroxy-2-methyl-2-dimethoxymethyl-3,4-dihydro-2H-1-benzopyran] |  |  |  |  |  |  | > 90 |  |  |  | 
8 | COC(OC)[C@@]1(C)Oc2ccc(N)cc2[C@H](N(Cc2nnn(C)n2)c2ccccc2O)[C@H]1O [Example 61, (2S,3R,4S)-6-amino-4-[N-(2-hydroxyphenyl)-N-(2-methyl-2H-tetrazol-5-ylmethyl)amino]-3-hydroxy-2-methyl-2-dimethoxymethyl-3,4-dihydro-2H-1-benzopyran] | > 2000 | > 30 | 87 | 89 | < 2000 | 1200 |  | 23.0 | 22.4 | 52.7 | 20.0
9 | COC(OC)[C@@]1(C)Oc2ccc(N)cc2[C@@H](N(Cc2nnn(C)n2)c2ccc(OC(F)(F)F)cc2)[C@@H]1O [Example 81, (2S,3S,4R)-6-amino-4-[N-(4-trifluoromethoxyphenyl)-N-(2-methyl-2H-tetrazol-5-ylmethyl)amino]-3-hydroxy-2-methyl-2-dimethoxymethyl-3,4-dihydro-2H-1-benzopyran] | > 2000 | > 30 | 89 | 120 | < 2000 | 1500 |  |  |  |  | 

— patent US7414068B2, “Benzopyran derivatives substituted with secondary amines including tetrazole, method for the preparation thereof and pharmaceutical compositions containing them” (Dongbu Hannong Chemical Co., Ltd., priority 2002, dated 2008)
